Data on 22 compounds can be found in ChEMBL document CHEMBL1125598, “HIV protease: a novel chemotherapeutic target for AIDS” (J Med Chem, 1991).

The structures appear in SMILES notation. Several values for one entry are separate records, joined by “and”; a condition that tells them apart may be missing. Identical values can stand only once. Peptide text beside a SMILES is read from it.

Series [1] deals with T1, Human immunodeficiency virus type 1 protease (Human immunodeficiency virus 1, UniProt Q72874). Kind of series: The compound was tested for its affinity against HIV-1 protease.
The test system of the next series is C8166. Kind of series: Antiviral activity in HIV-1RF infected C8166 cells. It counts as functional, cell-based. The settings on record: Homo sapiens.
A further series concerns JM1. Description: Antiviral activity in HIV-1GB8 infected JM cells. The note with it: Homo sapiens. It counts as functional, cell-based.
Series [2] relates to H9. Kind of series: Inhibitory activity against HIV-1IIIb in H-9 cells using immunofluorescence. It counts as functional, Homo sapiens.
For series [3], the system named is H9. Kind of series: Inhibitory activity against HIV-1 mB in H9 cells; Range 20-150 nM. The settings on record: Homo sapiens. It counts as functional, cell-based.
The nature of series [4]: Toxicity against HIV-1 mB in H9 cells; Range 10 to >100 uM. It counts as cell-based. The settings on record: human, read-out: TC50 (the source's name).
In another series the test system is MT4. Kind of series: Inhibitory activity against HIV-1 mB in MT-4 cells; Range 20-150 nM. The settings on record: Homo sapiens. Type of series: functional, cell-based.
Series [5] can be described thus: Toxicity against HIV-1 mB in MT-4 cells; Range 10 to >100 uM. Type of series: cell-based, MT4. The settings on record: human, read-out: TC50 (the source's name).
For series [6], the target named is T1, Human immunodeficiency virus type 1 protease. Kind of series: Binding affinity for HIV-1 protease.
The test system of series [7] is Human immunodeficiency virus 1. Kind of series: Concentration for prevention of spread of HIV infection; range 25-100 uM. It counts as functional, organism-based.

In series [1], `CC(C)(C)NC(=O)C1CCCCN1C[C@@H](O)[C@H](Cc1ccccc1)NC(=O)[C@H](CC(N)=O)NC(=O)c1ccc2ccccc2n1` (stereo partly drawn) gave a half-maximal inhibitory concentration (IC50) of 2 nM. In other words, the single-digit nanomolar range. Same read-out and setting: the figure for `CC(=O)N[C@@H](Cc1ccccc1)C(O)[C@H](Cc1ccccc1)NC(C)=O` is over 10000 nM. Turning to `CC(C)(C)NC(=O)[C@H]1C[C@@H]2CCCC[C@@H]2CN1C[C@@H](O)[C@H](Cc1ccccc1)NC(=O)[C@H](CC(N)=O)NC(=O)c1ccc2ccccc2n1`, the IC50 in the series on C8166 amounted to 2 nM; in the series with JM1, 2.5 nM. For `CC(C)(C)OC(=O)N[C@@H](Cc1ccccc1)[C@@H](O)C[C@@H](Cc1ccccc1)C(=O)N[C@H]1c2ccccc2C[C@H]1O`, the IC100 in the series on H9 [2] is 200 nM. For the compound `CC(C)[C@H](NC(=O)OCc1ccccc1)C(=O)N[C@@H](Cc1ccccc1)[C@H](O)[C@H](O)[C@H](Cc1ccccc1)NC(=O)[C@@H](NC(=O)OCc1ccccc1)C(C)C`, the concentration for half-maximal inhibition (IC50) in the series with H9 [3] is 20 nM; in the series with MT4 it was 20 nM; in series [1], 0.2 nM and < 0.4 nM. For the same compound, the CC50 in series [4] and in series [5] was 10000 nM throughout. In series [6], `CC(=O)N[C@@H](CO)C(=O)N[C@@H](CCC(N)=O)C(=O)N[C@@H](CC(N)=O)C(=O)N[C@@H](Cc1ccccc1)[C@@H](O)CC(=O)N[C@H](C(=O)N[C@H](C(N)=O)C(C)C)C(C)C` (HELM PEPTIDE1{[ac].S.Q.N.[O=C(C[C@H](O)[C@H](Cc1ccccc1)N[*:1])[*:2]].V.V.[am]}$$$$V2.0) registered an inhibition constant (Ki) of 39000 nM.

As to `CC(C)[C@H](NC(=O)OCc1ccccc1)C(=O)N[C@@H](Cc1ccccc1)C(O)[C@H](Cc1ccccc1)NC(=O)[C@@H](NC(=O)OCc1ccccc1)C(C)C`, it took 3 nM to reach half-maximal inhibition in series [1] (IC50).

In [1], `CC(C)[C@H](NC(=O)[C@@H](NC(=O)[C@@H]1CCCN1C[C@H](Cc1ccccc1)NC(=O)[C@H](C)NC(=O)[C@H](C)NC(=O)[C@@H](N)CO)C(C)C)C(N)=O` (HELM PEPTIDE1{S.A.A.[O=C([C@@H]1CCCN1C[C@H](Cc1ccccc1)N[*:1])[*:2]].V.V.[am]}$$$$V2.0) came in with an IC50 of 19000 nM.

In the case of `CC[C@H](C)[C@H](NC(=O)[C@@H](C[C@H](O)[C@H](CC1CCCCC1)NC(=O)[C@H](C)NC(C)(C)C)C(C)C)C(=O)NCc1ccccn1`, the inhibitory constant (Ki) in [6] was determined as 70 nM. On the same count and under the same terms, the same measure for `CC(C)[C@H](NC(=O)[C@@H](NC(=O)C(Cc1ccccc1)CP(=O)(O)[C@@H](Cc1ccccc1)NC(=O)[C@@H](NC(=O)[C@@H](NC(=O)OC(C)(C)C)C(C)C)C(C)C)C(C)C)C(N)=O` (stereo partly drawn) (HELM PEPTIDE1{[CC(C)(C)OC(=O)[*:2]].V.V.[O=C(C(Cc1ccccc1)CP(=O)(O)[C@@H](Cc1ccccc1)N[*:1])[*:2]].V.V.[am]}$$$$V2.0): 0.04 nM. For the compound `CC(C)C[C@H](NC(=O)[C@H](Cc1ccccc1)CP(=O)(O)[C@H](Cc1ccccc1)NC(=O)OC(C)(C)C)C(=O)N[C@@H](Cc1ccccc1)C(N)=O`, half-maximal inhibition in [1] (IC50) was put at 9 nM. Take `CC[C@H](C)[C@H](NC(=O)[C@@H](C[C@H](O)[C@H](CC(C)C)NC(=O)[C@H](Cc1c[nH]cn1)NC(=O)[C@H](Cc1ccccc1)NC(=O)[C@@H]1CCCN1C(=O)[C@H](Cc1c[nH]cn1)NC(=O)OC(C)(C)C)C(C)C)C(=O)N[C@@H](Cc1c[nH]cn1)C(=O)O` (HELM PEPTIDE1{[CC(C)(C)OC(=O)[*:2]].H.P.F.H.[CC(C)C[C@H](N[*:1])[C@@H](O)C[C@H](C(=O)[*:2])C(C)C].I.H}$$$$V2.0): the affinity in [6], expressed as Ki, was 5 nM. As to `CCCC[C@H](CN[C@H](CCCC)C(=O)N[C@@H](CCC(N)=O)C(=O)N[C@@H](CCCNC(=N)N)C(N)=O)NC(=O)[C@@H](NC(=O)[C@@H](NC(C)=O)[C@@H](C)O)[C@@H](C)CC`, half-maximal inhibition in series [1] (IC50) required 780 nM. `COC(=O)[C@@H](NC(=O)[C@@H](NC(=O)CC[C@@H](O)[C@@H](Cc1ccccc1)NC(=O)[C@H](C)NC(=O)[C@H](C)N)C(C)C)C(C)C` (HELM PEPTIDE1{A.A.[O=C(CC[C@@H](O)[C@@H](Cc1ccccc1)N[*:1])[*:2]].V.V.[CO[*:1]]}$$$$V2.0) came in with a Concentration in series [7] of 100 µM. The affinity in series [6] corresponds to a Ki of 18 nM. Compound `CC[C@H](C)[C@H](NC(=O)C1CCCN1C[C@H](C)[C@H](Cc1ccccc1)NC(=O)[C@H](CC(N)=O)NC(=O)[C@H](CC(C)C)NC(=O)[C@H](CO)NC(C)=O)C(=O)N[C@H](C(=O)OC)C(C)C` (stereo partly drawn) (HELM PEPTIDE1{[ac].S.L.N.[C[C@@H](CN1CCCC1C(=O)[*:2])[C@H](Cc1ccccc1)N[*:1]].I.V.[CO[*:1]]}$$$$V2.0) came in with an inhibition constant Ki in series [6] of 0.66 nM. `CC[C@H](C)[C@H](NC(=O)[C@@H]1CCCN1C[C@H](Cc1ccccc1)NC(=O)[C@H](CC(N)=O)NC(=O)[C@H](CCC(N)=O)NC(=O)[C@H](CO)NC(=O)[C@@H](N)C(C)C)C(=O)N[C@H](C(=O)O)C(C)C` (HELM PEPTIDE1{V.S.Q.N.[O=C([C@@H]1CCCN1C[C@H](Cc1ccccc1)N[*:1])[*:2]].I.V}$$$$V2.0) returned a concentration for half-maximal inhibition (IC50) in series [1] of 3.5 nM.

In turn, `CC(C)[C@H](NC(=O)[C@@H](NC(=O)C1CCCN1CP(=O)(O)[C@@H](Cc1ccccc1)NC(=O)c1ccccc1)C(C)C)C(N)=O` (stereo partly drawn) registered an inhibition constant Ki in series [6] of 450 nM. On the same count and under the same terms, the same measure for `COC(=O)[C@@H](NC(=O)[C@@H](NC(=O)C[C@H](O)[C@H](Cc1ccccc1)NC(=O)[C@H](C)NC(=O)[C@H](C)NC(=O)[C@@H](N)CO)C(C)C)C(C)C` (HELM PEPTIDE1{S.A.A.[O=C(C[C@H](O)[C@H](Cc1ccccc1)N[*:1])[*:2]].V.V.[CO[*:1]]}$$$$V2.0): 1200 nM. `CC(C)(C)OC(=O)C1CCCN1C[C@@H](O)[C@H](Cc1ccccc1)NC(=O)[C@H](CC(N)=O)NC(=O)OCc1ccccc1` (stereo partly drawn) gave an IC50 in series [1] of 140 nM.

In turn, `CC[C@H](C)[C@H](NC(=O)[C@H](C(C)C)[C@@H](O)[C@H](O)[C@H](CC1CCCCC1)NC(=O)[C@H](Cc1c[nH]cn1)NC(=O)COc1cccc2ccccc12)C(=O)NCc1ccccn1` yielded an inhibitory constant (Ki) in series [6] of under 1 nM. Same read-out and setting: the same measure for `CC(C)[C@H](NC(=O)[C@@H](NC(=O)C(Cc1ccccc1)CP(=O)(O)[C@@H](Cc1ccccc1)NC(=O)c1ccccc1)C(C)C)C(N)=O` (stereo partly drawn): 0.6 nM; for `COC(=O)[C@@H](NC(=O)[C@@H](NC(=O)CCP(=O)(O)[C@@H](Cc1ccccc1)NC(=O)[C@H](C)NC(=O)[C@H](C)NC(=O)[C@@H](N)CO)C(C)C)C(C)C` (HELM PEPTIDE1{S.A.A.[O=C(CCP(=O)(O)[C@@H](Cc1ccccc1)N[*:1])[*:2]].V.V.[CO[*:1]]}$$$$V2.0): 4400 nM.
